Patent publication US20240182531A1, “KV1.3 Blockers” (priority 2021, published 2024)
Where a SMILES comes first, the peptide text is derived from it. Bridges are numbered along the chain shown (N, C = ends). [ ]: non-standard residue; d: D form. Nle = CCCC[C@H](N)C(=O)O; Abu = CC[C@H](N)C(=O)O

Experiments:
[1] = biological target: T1, human Kv1.1 (Homo sapiens, UniProt Q09470); experiment: cell-based; conditions: ratio of patch clamp IC50 values
T1 construct: expressed in transfected cells; host or cells: CHO
T1 sequence (Q09470 whole entry): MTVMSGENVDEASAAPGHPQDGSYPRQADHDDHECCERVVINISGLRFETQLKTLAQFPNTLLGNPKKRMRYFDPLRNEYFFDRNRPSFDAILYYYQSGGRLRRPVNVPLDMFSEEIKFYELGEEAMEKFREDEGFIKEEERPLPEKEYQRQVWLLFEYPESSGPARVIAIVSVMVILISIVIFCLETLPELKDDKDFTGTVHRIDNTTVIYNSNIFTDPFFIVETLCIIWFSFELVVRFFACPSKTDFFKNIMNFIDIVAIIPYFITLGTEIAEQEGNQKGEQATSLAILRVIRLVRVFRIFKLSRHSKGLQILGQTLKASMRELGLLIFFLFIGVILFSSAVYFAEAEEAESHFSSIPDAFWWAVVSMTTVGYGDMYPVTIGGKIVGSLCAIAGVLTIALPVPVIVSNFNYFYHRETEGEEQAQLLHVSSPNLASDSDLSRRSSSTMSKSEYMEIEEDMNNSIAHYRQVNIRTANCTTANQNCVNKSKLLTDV

[2] = biological target: T2, human Kv1.2 (Homo sapiens, UniProt P16389); experiment: cell-based; conditions: ratio of patch clamp IC50 values
T2 construct: expressed in transfected cells; host or cells: CHO
T2 sequence (P16389 whole entry): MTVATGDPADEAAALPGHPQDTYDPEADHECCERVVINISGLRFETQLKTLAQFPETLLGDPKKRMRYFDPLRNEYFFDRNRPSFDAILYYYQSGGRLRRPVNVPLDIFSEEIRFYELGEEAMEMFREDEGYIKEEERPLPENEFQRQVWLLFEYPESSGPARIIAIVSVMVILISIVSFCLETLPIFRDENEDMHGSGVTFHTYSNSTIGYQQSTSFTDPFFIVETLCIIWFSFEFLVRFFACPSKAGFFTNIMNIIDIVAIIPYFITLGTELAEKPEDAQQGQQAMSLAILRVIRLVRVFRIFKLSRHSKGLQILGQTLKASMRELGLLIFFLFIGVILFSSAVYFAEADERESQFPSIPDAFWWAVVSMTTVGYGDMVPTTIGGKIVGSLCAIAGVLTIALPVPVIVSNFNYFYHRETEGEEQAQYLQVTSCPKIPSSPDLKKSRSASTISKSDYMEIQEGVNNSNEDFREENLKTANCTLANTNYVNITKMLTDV

[3] = biological target: T3, human Kv1.6 (Homo sapiens, UniProt P17658); experiment: cell-based; conditions: ratio of patch clamp IC50 values
T3 construct: expressed in transfected cells; host or cells: CHO
T3 sequence (P17658 whole entry): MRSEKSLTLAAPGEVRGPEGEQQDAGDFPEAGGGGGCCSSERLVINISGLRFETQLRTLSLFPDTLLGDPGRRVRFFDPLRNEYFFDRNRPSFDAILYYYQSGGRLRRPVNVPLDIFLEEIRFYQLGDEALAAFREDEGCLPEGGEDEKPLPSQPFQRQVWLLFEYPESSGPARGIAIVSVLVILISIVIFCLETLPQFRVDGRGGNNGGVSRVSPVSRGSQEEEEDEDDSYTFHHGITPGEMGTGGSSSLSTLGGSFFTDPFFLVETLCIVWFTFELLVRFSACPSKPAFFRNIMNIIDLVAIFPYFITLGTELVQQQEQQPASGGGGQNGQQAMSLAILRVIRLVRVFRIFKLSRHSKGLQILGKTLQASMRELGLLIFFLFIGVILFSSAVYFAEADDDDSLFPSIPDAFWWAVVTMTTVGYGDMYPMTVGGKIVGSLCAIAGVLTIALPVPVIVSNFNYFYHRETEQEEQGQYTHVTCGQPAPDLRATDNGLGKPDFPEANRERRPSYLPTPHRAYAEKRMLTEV

[4] = biological target: Rat whole blood (Rattus norvegicus, UniProt P15384); type: cell-based; conditions: IL-17A release, thapsigargin, 24 Hr, at least 2 replicates
Sequence of Rat whole blood (P15384 whole entry): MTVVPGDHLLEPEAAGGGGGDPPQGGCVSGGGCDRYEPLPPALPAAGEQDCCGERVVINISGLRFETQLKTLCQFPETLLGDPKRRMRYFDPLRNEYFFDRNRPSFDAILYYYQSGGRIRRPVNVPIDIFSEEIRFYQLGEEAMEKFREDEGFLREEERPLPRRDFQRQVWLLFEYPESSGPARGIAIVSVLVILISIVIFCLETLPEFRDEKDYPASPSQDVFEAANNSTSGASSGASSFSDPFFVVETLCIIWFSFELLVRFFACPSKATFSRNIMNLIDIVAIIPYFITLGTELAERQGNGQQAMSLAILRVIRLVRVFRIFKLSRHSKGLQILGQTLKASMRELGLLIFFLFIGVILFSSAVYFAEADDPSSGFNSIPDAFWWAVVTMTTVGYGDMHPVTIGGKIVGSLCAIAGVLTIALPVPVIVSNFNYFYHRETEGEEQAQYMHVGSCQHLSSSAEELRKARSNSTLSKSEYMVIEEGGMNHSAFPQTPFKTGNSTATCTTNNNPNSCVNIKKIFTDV

Compound | Selectivity ratio Kv1.1/Kv1.3 [1] | Selectivity ratio Kv1.2/Kv1.3 [2] | Selectivity ratio Kv1.6/Kv1.3 [3] | IC50 [4] [nM]
CC[C@H](C)[C@@H]1NC(=O)[C@H](C)NC(=O)[C@H](CCCCN)NC(=O)[C@H](CC(C)C)NC(=O)[C@@H]2CSSC[C@@H](C(=O)N[C@@H](Cc3ccc(O)cc3)C(=O)N3CCC[C@H]3C(=O)N[C@@H](CCCNC(=N)N)C(=O)O)NC(=O)[C@H](CCCCN)NC(=O)[C@@H]3CSSC[C@H](NC(=O)[C@H](CCC(=O)O)NC(=O)[C@H](C(C)C)NC(=O)[C@H](CO)NC(=O)[C@H](C)NC(=O)[C@H](CO)NC(=O)[C@@H](NC(=O)[C@H](CCCNC(=N)N)NC(=O)[C@H](CCSC)NC(=O)[C@H](CC(=O)O)NC(=O)[C@H](CCSC)NC(=O)[C@@H](N)CCC(N)=O)CSSC[C@H](NC(=O)[C@H](CCCCN)NC(=O)CNC(=O)[C@H](Cc4ccccc4)NC(=O)CNC(=O)[C@H](CCCNC(=N)N)NC(=O)CNC1=O)C(=O)N[C@@H](CCSC)C(=O)N[C@@H](CC(N)=O)C(=O)N[C@@H](CCCCN)C(=O)N[C@@H](CCCCN)C(=O)N3)C(=O)N[C@@H](CCCCN)C(=O)N[C@@H](CCC(N)=O)C(=O)N[C@@H](CCCCN)C(=O)N2 [compound 16] (H-QMDMRCSASVECKQKCLKAIGRGFGKCMNKKCKCYPR-OH; disulfide 6-27, 12-32, 16-34) | >2000 | 65 | 1204 | –
CC[C@H](C)[C@@H]1NC(=O)[C@H](C)NC(=O)[C@H](CCCCN)NC(=O)[C@H](CC(C)C)NC(=O)[C@@H]2CSSC[C@@H](C(=O)N[C@@H](Cc3ccc(O)cc3)C(=O)N3CCC[C@H]3C(=O)N[C@@H](CCCNC(=N)N)C(=O)O)NC(=O)[C@H](CCCCN)NC(=O)[C@@H]3CSSC[C@H](NC(=O)[C@H](CCC(=O)O)NC(=O)[C@H](C(C)C)NC(=O)[C@H](CO)NC(=O)[C@H](C)NC(=O)[C@H](CO)NC(=O)[C@@H](NC(=O)[C@H](CCCNC(=N)N)NC(=O)[C@H](CCSC)NC(=O)[C@H](CC(=O)O)NC(=O)[C@@H](N)CCSC)CSSC[C@H](NC(=O)[C@H](CCCCN)NC(=O)CNC(=O)[C@H](Cc4ccccc4)NC(=O)[C@H]([C@@H](C)CC)NC(=O)[C@H](CO)NC(=O)CNC1=O)C(=O)N[C@@H](CCSC)C(=O)N[C@@H](CC(N)=O)C(=O)N[C@@H](CCCCN)C(=O)N[C@@H](CCCCN)C(=O)N3)C(=O)N[C@@H](CCCCN)C(=O)N[C@@H](CCC(N)=O)C(=O)N[C@@H](CCCCN)C(=O)N2 [compound 18] (H-MDMRCSASVECKQKCLKAIGSIFGKCMNKKCKCYPR-OH; disulfide 5-26, 11-31, 15-33) | >7900 | 747 | >7900 | –
CC[C@H](C)[C@@H]1NC(=O)[C@H](C)NC(=O)[C@H](CCCCN)NC(=O)[C@H](CC(C)C)NC(=O)[C@@H]2CSSC[C@@H](C(=O)N[C@@H](Cc3ccc(O)cc3)C(=O)N3CCC[C@H]3C(=O)N[C@@H](CCCNC(=N)N)C(=O)O)NC(=O)[C@H](CCCCN)NC(=O)[C@@H]3CSSC[C@H](NC(=O)[C@H](CCC(=O)O)NC(=O)[C@H](C(C)C)NC(=O)[C@H](CO)NC(=O)[C@H](C)NC(=O)[C@H](CO)NC(=O)[C@@H](NC(=O)[C@H](CCCNC(=N)N)NC(=O)[C@H](CCSC)NC(=O)[C@H](CC(=O)O)NC(=O)[C@@H](NC(=O)[C@@H](N)CC(N)=O)[C@@H](C)CC)CSSC[C@H](NC(=O)[C@H](CCCCN)NC(=O)CNC(=O)[C@H](Cc4ccccc4)NC(=O)[C@H]([C@@H](C)CC)NC(=O)[C@H](CO)NC(=O)CNC1=O)C(=O)N[C@@H](CCSC)C(=O)N[C@@H](CC(N)=O)C(=O)N[C@@H](CCCCN)C(=O)N[C@@H](CCCCN)C(=O)N3)C(=O)N[C@@H](CCCCN)C(=O)N[C@@H](CCC(N)=O)C(=O)N[C@@H](CCCCN)C(=O)N2 [compound 19] (H-NIDMRCSASVECKQKCLKAIGSIFGKCMNKKCKCYPR-OH; disulfide 6-27, 12-32, 16-34) | >6800 | 857 | >6800 | –
CC[C@H](C)[C@@H]1NC(=O)[C@H](C)NC(=O)[C@H](CCCCN)NC(=O)[C@H](CC(C)C)NC(=O)[C@@H]2CSSC[C@@H](C(=O)N[C@@H](Cc3ccc(O)cc3)C(=O)N3CCC[C@H]3C(=O)N[C@@H](CCCNC(=N)N)C(=O)O)NC(=O)[C@H](CCCCN)NC(=O)[C@@H]3CSSC[C@H](NC(=O)[C@H](CCC(=O)O)NC(=O)[C@H](C(C)C)NC(=O)[C@H](CO)NC(=O)[C@H](C)NC(=O)[C@H](CO)NC(=O)[C@@H](NC(=O)[C@H](CCCNC(=N)N)NC(=O)[C@H](CCSC)NC(=O)[C@H](CCC(=O)O)NC(=O)[C@H](CCSC)NC(=O)[C@@H](N)CC(N)=O)CSSC[C@H](NC(=O)[C@H](CCCCN)NC(=O)CNC(=O)[C@H](Cc4ccccc4)NC(=O)[C@H]([C@@H](C)CC)NC(=O)[C@H](CO)NC(=O)CNC1=O)C(=O)N[C@@H](CCSC)C(=O)N[C@@H](CC(N)=O)C(=O)N[C@@H](CCCCN)C(=O)N[C@@H](CCCCN)C(=O)N3)C(=O)N[C@@H](CCCCN)C(=O)N[C@@H](CCC(N)=O)C(=O)N[C@@H](CCCCN)C(=O)N2 [compound 20] (H-NMEMRCSASVECKQKCLKAIGSIFGKCMNKKCKCYPR-OH; disulfide 6-27, 12-32, 16-34) | >27600 | 2093 | >27600 | –
CCCC[C@@H]1NC(=O)[C@@H]2CSSC[C@H](NC(=O)[C@H](CCCNC(=N)N)NC(=O)[C@H](CCCC)NC(=O)[C@H](CC(=O)O)NC(=O)[C@H](CCCC)NC(=O)[C@@H](N)CC(N)=O)C(=O)N[C@@H](CO)C(=O)N[C@@H](C)C(=O)N[C@@H](CO)C(=O)N[C@@H](C(C)C)C(=O)N[C@@H](CCC(=O)O)C(=O)N[C@H]3CSSC[C@H](NC(=O)[C@H](CCCCN)NC(=O)[C@H](CCCCN)NC(=O)[C@H](CC(N)=O)NC1=O)C(=O)N[C@@H](CCCCN)C(=O)N[C@H](C(=O)N[C@@H](Cc1ccc(O)cc1)C(=O)N1CCC[C@H]1C(=O)N[C@@H](CCCNC(=N)N)C(N)=O)CSSC[C@H](NC(=O)[C@H](CCCCN)NC(=O)[C@H](CCC(N)=O)NC(=O)[C@H](CCCCN)NC3=O)C(=O)N[C@@H](CC(C)C)C(=O)N[C@@H](CCCCN)C(=O)N[C@@H](C)C(=O)N[C@@H]([C@@H](C)CC)C(=O)NCC(=O)N[C@@H](CO)C(=O)N[C@@H]([C@@H](C)CC)C(=O)N[C@@H](Cc1ccccc1)C(=O)NCC(=O)N[C@@H](CCCCN)C(=O)N2 [compound 44] (H-N[Nle]D[Nle]RCSASVECKQKCLKAIGSIFGKC[Nle]NKKCKCYPR-NH2; disulfide 6-27, 12-32, 16-34) | >11600 | 436 | 7073 | –
CC[C@H](C)[C@@H]1NC(=O)[C@H](C)NC(=O)[C@H](Cc2ccc(O)cc2)NC(=O)[C@H](CC(C)C)NC(=O)[C@@H]2CSSC[C@@H](C(=O)N[C@@H](Cc3ccc(O)cc3)C(=O)N3CCC[C@H]3C(=O)N[C@@H](CCCNC(=N)N)C(N)=O)NC(=O)[C@H](CCCCN)NC(=O)[C@@H]3CSSC[C@H](NC(=O)[C@H](CCC(=O)O)NC(=O)[C@H](C(C)C)NC(=O)[C@H](CO)NC(=O)[C@H](C)NC(=O)[C@H](CO)NC(=O)[C@@H](NC(=O)[C@H](CCCNC(=N)N)NC(=O)[C@H](CCSC)NC(=O)[C@H](CC(=O)O)NC(=O)[C@H](CCSC)NC(=O)[C@@H](N)CC(N)=O)CSSC[C@H](NC(=O)[C@H](CCCCN)NC(=O)CNC(=O)[C@H](Cc4ccccc4)NC(=O)[C@H]([C@@H](C)CC)NC(=O)[C@H](CO)NC(=O)CNC1=O)C(=O)N[C@@H](CCSC)C(=O)N[C@@H](CC(N)=O)C(=O)N[C@@H](CCCCN)C(=O)N[C@@H](CCCCN)C(=O)N3)C(=O)N[C@@H](CCCCN)C(=O)N[C@@H](CCC(N)=O)C(=O)N[C@@H](CCCCN)C(=O)N2 [compound 57] (H-NMDMRCSASVECKQKCLYAIGSIFGKCMNKKCKCYPR-NH2; disulfide 6-27, 12-32, 16-34) | >10300 | 514 | >10300 | –
CC[C@H](C)[C@@H]1NC(=O)[C@H](C)NC(=O)[C@H](CC(C)C)NC(=O)[C@@H]2CSSC[C@@H](C(=O)N[C@@H](Cc3ccc(O)cc3)C(=O)N3CCC[C@H]3C(=O)N[C@@H](CCCNC(=N)N)C(N)=O)NC(=O)[C@H](CCCCN)NC(=O)[C@@H]3CSSC[C@H](NC(=O)[C@H](CCC(=O)O)NC(=O)[C@H](C(C)C)NC(=O)[C@H](CO)NC(=O)[C@H](C)NC(=O)[C@H](CO)NC(=O)[C@@H](NC(=O)[C@H](CCCNC(=N)N)NC(=O)[C@H](CCSC)NC(=O)[C@H](CC(=O)O)NC(=O)[C@H](CCSC)NC(=O)[C@@H](N)CC(N)=O)CSSC[C@H](NC(=O)[C@H](CCCCN)NC(=O)CNC(=O)[C@H](Cc4ccccc4)NC(=O)[C@H]([C@@H](C)CC)NC(=O)[C@H](CO)NC(=O)CNC1=O)C(=O)N[C@@H](CCSC)C(=O)N[C@@H](CC(N)=O)C(=O)N[C@@H](CCCCN)C(=O)N[C@@H](CCCCN)C(=O)N3)C(=O)N[C@@H](CCCCN)C(=O)N[C@@H](CCC(N)=O)C(=O)N[C@@H](CCCCN)C(=O)N2 [compound 58] (H-NMDMRCSASVECKQKCLAIGSIFGKCMNKKCKCYPR-NH2; disulfide 6-26, 12-31, 16-33) | >1200 | 121 | >1200 | –
H-S[Nle]D[Nle]RCSASVECK[2-Amino-5-carboxypentanoyl]KCLKAIGSIFGKCMNKKCKCYPR-NH2 [compound 73] | – | – | – | 0.52
H-S[Nle]D[Nle]RCSASVECVQKCLKAIGSIFGKCMNKKCKCYPR-NH2 (cysteine pairing not given here) [compound 72] | – | – | – | 0.47
H-S[Nle]D[Nle]RCSA[Abu]VECKQKCLKAIGSIFGKCMNKKCKCYPR-NH2 (cysteine pairing not given here) [compound 68] | – | – | – | 0.93
LRCSASVECKQKCLAAIGSIFGKCMNKKCKCYPR [compound 105] | – | – | – | 0.36
NMDMRCSASVECKQKCLKAIGSIFGKCMNKKCVCYPR [compound 42] | – | – | – | 2.8
NMDMRCSASVECKQKCLKAIHSIFGKCMNKKCKCYPR [compound 37] | – | – | – | 0.7
